Laboratory results published in patent US20250186475A1, “METHODS OF TREATING MEDICAL CONDITIONS USING ISLATRAVIR OR A RELATED COMPOUND” (ROME Therapeutics, Inc., priority 2022, published 2025).
One block for each compound: values may come before it.

Tests used:
[1] = molecular target: T1, recombinant MBP-tagged LINE1 protein (238-1061) (Homo sapiens, UniProt O00370); test: Homogeneous time-resolved fluorescence (HTRF) LINE1 RT assay; format: biochemical; conditions: 25° C., 60 minutes, read-out: IC50 for inhibition of LINE1 reverse transcriptase
T1 construct: recombinant MBP-tagged LINE1 protein (238-1061); MBP; made in house
Method: The LINE1 reverse transcriptase homogeneous time-resolved fluorescence (HTRF) assay was performed with recombinant MBP-tagged LINE1 protein (238-1061) (generated and purified according to procedures in Dai L. et al. BMC Biochemistry 2011; 12:18) in a 384-well format. Test compound was serially diluted in DMSO and further diluted in the assay buffer (50 mM Tris-HCl, 50 mM KCl, 10 mM MgCl2, 10 mM DTT, pH 8.1) to achieve a final DMSO concentration of 1%. The serially diluted compound was mixed with 64 ng/well of LINE1 enzyme, 5 nM of pre-annealed template/biotin-primer pair (synthesized at Generay Biotechnology), 10 nM of Fluorescein-12-dATP fluorescent probe (Perkin Elmer), and 1 μM dGTP/dCTP/dTTP (Thermo Fisher Scientific) in the assay buffer. The template/biotin-primer sequences were as follows:
After incubating at 25° C. for 60 minutes, the detection reagent (20 mM EDTA with streptavidin-terbium cryptate, Cisbio Bioassay) in the PPI buffer (Cisbio Bioassay) was added, and the mixture was incubated at 25° C. for 30 minutes. At the end of the incubation, fluorescence was read at ex/em=337/485 nm and ex/em=337/520 nm on an Envision 2104 plate reader (Perkin Elmer). The fluorescence ratio at 520/485 nm was used for the calculation. […] The IC50 was calculated by fitting the compound dose inhibition curve with a 4-parameter non-linear regression equation.

[2] = test system: IFN-β production in PBMCs; test: Decitabine-stimulated human PBMC assay; format: cell-based; conditions: PBMCs with anti-CD3/anti-CD28 and 10 μM decitabine, 5 days
Method: EasySep buffer (32 mL, Stem Cell, cat. #20144) was used to dilute 8 mL of LRSC buffy coat (from fresh Leukopak) with gentle mixing. The diluted buffy coat (20 mL) was transferred into each of two SepMate 50 tubes, and the tubes were filled with 15 mL of Lyphoprep (Stem Cell, ct. #07851) density gradient. The SepMate tubes were then centrifuged at […] for 10 minutes at room temperature with the brake on. The top layer of supernatant was collected in SepMate tubes by quickly pouring it into a new 50 mL conical tube. The PBMCs were washed with EasySep buffer x2 by centrifuging at 300G for 5 minutes. The cells were resuspended in 30 mL of EasySep and centrifuged at 100G for 5 minutes with the brake off, and the platelets were removed. The cells were then resuspended in 6 mL of 1×RBC lysis buffer (InvitroGen) and incubated at 37° C. for 5 minutes. Then, 25 mL of EasySep buffer was mixed into the tube and it was centrifuged at 300G for 5 minutes. The cells were resuspended in 10 mL of EasySep buffer and the cells were then counted with Cellometer (AO/PI). The PBMCs were resuspended in RPMI1640 (ThermoFisher)+10% FBS (HyClone)+p/s at 3×10^6/mL. The PBMCs (100 μL, 300 k PBMCs) were then seeded in a 96-well flat bottom microplate (Corning) that had been precoated with 100 μL of anti-CD3 antibody (10 μg/mL in PBS, Biolegend) or PBS at 4° C., one day before the assay was commenced. […]

[3] = test system: THP1-Dual™ KO-TREX1 cells; test: CellTiter-Glo cell viability in THP1 TREX1 KO cells; format: cell-based; conditions: Homo sapiens, 120 h, in the presence of 1 μM 5-aza-2′-deoxycytidine, five days, read-out: CellTiter-Glo inhibition IC50
Method: (§1) THP1-Dual™ KO-TREX1 cells were purchased from Invivogen (cat #thpd-kotrex). The THP1-Dual™ KO-TREX1 cells were cultured in RPMI 1640, 10% heat-inactivated fetal bovine serum, 25 mM HEPES, 10 μg/mL Blasticidin, and 100 μg/mL Zeocin. THP1-Dual™ KO-TREX1 cells were treated with a dose titration of test compound in the presence of 1 μM 5-aza-2′-deoxycytidine (Sigma, cat #189825). Type 1 Interferon and cell viability were assessed after five days of treatment.
(§2) Stock solution of test compound was prepared in DMSO followed by a three-fold dilution in DMSO. Additional 50× dilution was prepared in cell culture media for each dilution. 10 μL of diluted test compound was then added to a 384-well plate.
THP1-Dual™ KO-TREX1 cells were treated with 1 μM 5-aza-2′-deoxycytidine. THP1-Dual™ KO-TREX1 cells (50 μL) were added to each well of the 384-well plate containing test compound titration at 10,000 cells/well. Cells were incubated at 37° C., 5% CO2 in a humidified incubator for five days. […] Luminescence was detected on a plate reader according to manufacturer's instructions. […]
The remaining cells were assessed for cell viability by adding 30 μl of CellTiter-Glo (Promega, G9683) solution to each well, and placed on a shaker for 10 minutes at room temperature. Luminescence was detected on a plate reader, according to manufacturer's instructions. […]

[4] = molecular target: T2, LINE1 reverse transcriptase (Homo sapiens, UniProt O00370); test: Transient artificial-intron Cis LINE1 reporter assay; format: cell-based; conditions: HEK 293 cells, FLuc/RLuc ratio, read-out: IC50 for inhibition of FLuc luminescence
T2 construct: expressed in transfected cells
Method: Intron-disrupted Firefly luciferase (FLuc) expression cassettes were generated as described by Xie, Y. et al. “Characterization of L1 retrotransposition with high-throughput dual-luciferase assays,” Nucleic Acid Res. (2011) Vol. 39, No. 3, e16. In addition, the plasmid contained an intact Renilla luciferase (RLuc) expression cassette on the vector backbone, in order to normalize transfection efficiency and measure potential cell toxicity.
HEK 293 cells were seeded in 96-well plates at 1,000 cells/well in 55 μL and grown for 24 hours. Cells were transfected with FuGeneHD (Promega) following the manufacturer's protocol. Each well received 0.133 ng plasmid, 0.4 μL FuGeneHD reagent, and 4.5 μL GlutaMAX-I-supplemented Opti-MEM I reduced-serum medium (Invitrogen). Cells were simultaneously treated with test compound serially diluted starting at 100 μM in a 3-fold dilution dose response.
Luminescence was measured using the Dual-Glo Luciferase Assay System (Promega) following the manufacturer's instructions. The ratio between FLuc and RLuc gene expression was used to report LINE1 activity.

[5] = test system: THP1-Dual™ KO-TREX1 cells; test: Cellular assay for altering IFN production in THP1 TREX1 KO cells; format: cell-based; conditions: in the presence of 1 μM 5-aza-2′-deoxycytidine, five days
Method: as §1, §2
THP1-Dual™ KO-TREX1 cells were treated with 1 μM 5-aza-2′-deoxycytidine. THP1-Dual™ KO-TREX1 cells (50 μL) were added to each well of the 384-well plate containing test compound titration at 10,000 cells/well. Cells were incubated at 37° C., 5% CO2 in a humidified incubator for five days. On day five, 20 μL of cell supernatant was transferred to a 384-well, white-walled plate, followed by addition to each well of 50 μL of QUANTI-LUC solution containing stabilizer. Luminescence was detected on a plate reader according to manufacturer's instructions. […]

[6] = molecular target: T2, LINE1 reverse transcriptase; test: Stable artificial-intron Cis LINE1 reporter assay (HeLa Tet-On 3G); format: cell-based; conditions: HeLa L1 reporter cells, doxycycline induced, 72 h; read-out: IC50 for inhibition of FLuc luminescence
From the text: A stable HeLa Tet-On 3G (Takara, cat no 631183) cell line expressing a bi-directional inducible LINE1 construct was generated as described in Xie, Y. et al. “Cell division promotes efficient retrotransposition in a stable L1 reporter cell line,” Mobile DNA (2013) 4:10. Single cell clones were screened for high Luciferase expression and the highest expression Firefly expressing clone was chosen for compound testing.
Test compound was serially diluted in DMSO and spotted in 96-well plates. Subsequently the HeLa L1 artificial-intron reporter cells were plated into the compound-containing wells (8,000 cells/well), and the cells were induced for reporter expression with doxycycline (Sigma cat no D9891) at a final concentration of 500 ng/mL. Luminescence was measured 72 h after plating using the Dual-Glo Luciferase Assay System (Promega cat no E2940) following the manufacturer's instructions. The Firefly Luciferase activity was used to report LINE1 activity.

KYSE-410 cells = test: Cancer cell viability assay with 3D cell colonies (CellTiter-Glo), KYSE-410; format: cell-based; conditions: 7 days
Method: (§3) Ovarian cancer cell line SK-OV-3 cells were cultured in McCoy's 5a media containing 10% FBS. Ovarian cancer cell line OVCAR-8 cells were cultured in RPMI media containing 10% FBS. Additional cancer cell lines were cultured in the following media: • Ovarian cancer SW756 cells—L-15 (100% air)+10% FBS • Esophageal cancer TE-1 cells—RPMI-1640+10% FBS • Esophageal cancer KYSE-410 cells—RPMI-1640+5˜10% FBS • Esophageal cancer KYSE-70 cells—RPMI-1640+10% h.i.FBS. • Pharyngeal cancer FaDu cells—MEM+0.01 mM NEAA+10% FBS
(§4) Cell colony formation was tested using a 3D methylcellulose-based CellTiter-Glo (CTG) viability assay (Cat. No: G7573, Promega). Briefly, cells were inoculated into 96-well plates (at 1,500 cells per well) into a solution of 0.65% methylcellulose in growth media and incubated overnight at 37° C. in 5% CO2. The next day, serially diluted test compound (islatravir) or positive control (cisplatin, Cat. No. 6J015A89, Qilu Pharma) were added at the indicated concentrations, and the cells were incubated for 7 days. On day seven, 100 μL of CTG reagent was added, and the plates were incubated at room temperature for 20 min. Luminescence was read on an Envision Multi Label Reader according to manufacturer's instructions. IC50 values were determined using the following calculation: […]

FaDu cells = test: Cancer cell viability assay with 3D cell colonies (CellTiter-Glo), FaDu; format: cell-based; conditions: 7 days
Method: as §3, §4

SW756 cells = test: Cancer cell viability assay with 3D cell colonies (CellTiter-Glo), SW756; format: cell-based; conditions: 7 days
Method: as §3, §4

SK-OV-3 cells = test: Cancer cell viability assay with 3D cell colonies (CellTiter-Glo), SK-OV-3; format: cell-based; conditions: 3D tumorsphere growth, 7 days
Method: as §3, §4

KYSE-70 cells = test: Cancer cell viability assay with 3D cell colonies (CellTiter-Glo), KYSE-70; format: cell-based; conditions: 7 days
Method: as §3, §4

TE-1 cells = test: Cancer cell viability assay with 3D cell colonies (CellTiter-Glo), TE-1; format: cell-based; conditions: 7 days
Method: as §3, §4

OVCAR-8 cells = test: Cancer cell viability assay with 3D cell colonies (CellTiter-Glo), OVCAR-8; format: cell-based; conditions: 3D tumorsphere growth, 7 days
Method: as §3, §4

IC50 [1]: 12.4 nM
SMILES: C#C[C@]1(COP(=O)(O)OP(=O)(O)OP(=O)(O)O)O[C@@H](n2cnc3c(N)nc(F)nc32)C[C@@H]1O

IC50 [3]: > 20000 nM | IC50 [4]: 8 nM | IC50 [6]: 3 nM
SMILES: C#C[C@]1(CO)O[C@@H](n2cnc3c(N)nc(Cl)nc32)C[C@@H]1O [4′-ethynyl-2-chloro-2′-deoxyadenosine]
production of IFN-β [2]: activated production of IFN-β | changes in IFN levels (% induction) [5]: induction of IFN

SMILES: N.N.[Cl][Pt][Cl] [Cisplatin, cisplatin]
IC50 (KYSE-410 cells): > 30 µM | IC50 (FaDu cells): ≤ 10 µM | IC50 (SW756 cells): ≤ 10 µM | IC50 (SK-OV-3 cells): 2.24 µM | IC50 (KYSE-70 cells): ≤ 10 µM | IC50 (TE-1 cells): ≤ 10 µM | IC50 (OVCAR-8 cells): 3.29 µM
